Numbers after ± are expanded uncertainties.
Experiments:
[1] = Liquid
[2] = refractive index (Na D-line) (dimensionless); details: 298.15 K; 101.33 kPa; Liquid; Standard Abbe refractometry

vapor or sublimation pressure ([1]; 389.5 K) | Structure (SMILES) | refractive index [2] | vapor or sublimation pressure ([1]; 410 K)
97.3 ± 1.6 kPa | CCCCO [butan-1-ol] | 1.3973 ± 0.0008 | 
 | Cc1ccc(C)cc1 [1,4-dimethylbenzene] | 1.49325 ± 0.00075 | 97.3 ± 1.6 kPa
